System: human pluripotent stem cells (hPSCs)
Experiment: Differentiation of human pluripotent stem cells into hematopoietic stem cells, proportion of CD34+CD45+ cells by FACS
Assay type: cell-based
Procedure: Specific experiments on the method of preparing human hematopoietic stem cells were performed as follows. First, isolated human pluripotent stem cells (hPSCs) were maintained in stemMACS-IPS brew medium for 2 days. The differentiation base culture medium consisted of the following composition: Stempro 34-SFM (+stempro sup)+200 ug/ml of human Transferrin +2 mM of L-glutamine+0.5 mM of L-ascorbic acid+0.45 mM of MTG (1-thioglycerol) +1% of penicillin/streptomycin. To induce mesodermfrom the isolated hPSCs, treatment was performed with CHIR99021 (5 uM) alone, a representative example of a GSK inhibitor, for about 2 days. Next, treatment was performed with 50 ng/ml of BMP4, 50 ng/ml of VEGF, and 100 ng/ml of bFGF for 2 days to induce hemangioblasts. Next, 50 ng/ml of VEGF, 50 ng/ml of bFGF, and SB-431542 (10 μM) as representative examples of TGF-beta inhibitors and 1 μM of retinoic acid (RA) were added and cultured for about 1 day, and 0.1% (w/v) of PVA, 50 ng/ml of stem cell factor (SCF), and 10 ng/ml of bFGF were added and cultured for about 11 days (FIG. 2).
Specifically, it is widely known that vascular endothelial growth factor (VEGF) may be used to induce mesoderm and induce and maintain hemangioblasts (precursors of HSCs), and has been mainly used during the period of inducing hematopoietic stem cells. Therefore, to determine what effect it will have on the final hematopoietic stem cell generation efficiency when VEGF is excluded from the induction of hematopoietic stem cells, the results of hematopoietic stem cell differentiation according to the presence or absence of VEGF (10 ng/ml) were confirmed under the same conditions (50 ng/ml of SCF, 10 ng/ml of bFGF, 20 ng/ml of IL-3 and 10 ng/ml of IL-6) (FIG. 3A).
To confirm the differentiation results, Fluorescence Activated Cell Sorting (FACS) was performed to confirm the proportion of CD34^+CD45^+ cells. […] After washing away the remaining antibodies with staining buffer, 200 μl of staining buffer was added again and analyzed using a flow cytometer.
Specifically, in the existing method, treatment was performed with bone morphogenetic protein 4 (BMP4), VEGF, and CHIR99021 to induce mesoderm. However, it was determined that the above conditions were not compatible with the sequence of the process for differentiating stem cells into hematopoietic stem cells. […]
For this purpose, the efficiency of hematopoietic stem cell differentiation when treated with SB-431542 (SB4), a representative example of a TGF-beta inhibitor, in addition to VEGF and basic fibroblast growth factor (bFGF) for various periods of time, was determined (FIG. 5A). […]

Compound: NC(=O)c1ccc(-c2nc(-c3ccc4c(c3)OCO4)c(-c3ccccn3)[nH]2)cc1 [SB4]
- hematopoietic stem cell differentiation efficiency (EHT induction, SB4 for a long period of time in addition to VEGF and bFGF, FIG. 5B): significantly reduced
- proportion of CD34+CD45+ cells (EHT induction, SB4 for less than 24 hours in addition to VEGF and bFGF, FIG. 5B): significantly superior

Compound: VEGF
- ratio of CD34+CD45+ cells (VEGF (10 ng/ml) present or absent during hematopoietic stem cell induction, with 50 ng/ml SCF, 10 ng/ml bFGF, 20 ng/ml IL-3, 10 ng/ml IL-6, FIG. 3B): excluding VEGF from the induction of hematopoietic stem cells was significantly superior

Compound: Cc1cnc(-c2cnc(NCCNc3ccc(C#N)cn3)nc2-c2ccc(Cl)cc2Cl)[nH]1 [CHIR99021, 6-[[2-[[4-(2,4-Dichlorophenyl)-5-(5-methyl-1H-imidazol-2-yl)-2-pyrimidinyl]amino]ethyl]amino]-3-pyridinecarbonitrile]
- ratio of CD34+CD45+ cells (CHIR99021 alone in mesoderm induction, compared with BMP4 (5 ng/ml), VEGF (50 ng/ml) and CHIR99021, FIG. 4B): significantly superior
